Consider 24 compounds from ChEMBL document CHEMBL1146677, “Orally active anti-proliferation agents: novel diphenylamine derivatives as FGF-R2 autophosphorylation inhibitors” (Bioorg Med Chem Lett, 2004).

The term pIC50 denotes −log10 of the IC50, conventionally taken in molar units. One may read the inhibition as how much of the control response was suppressed.

Data set [1] has as its target T1, Fibroblast growth factor receptor 2 (Homo sapiens, UniProt P21802). The data set is described as follows: In vitro inhibition against autophosphorylation of Fibroblast growth factor receptor 2 in the human scirrhous gastric carcinoma cell line.
Target sequence in this assay (P21802 whole entry): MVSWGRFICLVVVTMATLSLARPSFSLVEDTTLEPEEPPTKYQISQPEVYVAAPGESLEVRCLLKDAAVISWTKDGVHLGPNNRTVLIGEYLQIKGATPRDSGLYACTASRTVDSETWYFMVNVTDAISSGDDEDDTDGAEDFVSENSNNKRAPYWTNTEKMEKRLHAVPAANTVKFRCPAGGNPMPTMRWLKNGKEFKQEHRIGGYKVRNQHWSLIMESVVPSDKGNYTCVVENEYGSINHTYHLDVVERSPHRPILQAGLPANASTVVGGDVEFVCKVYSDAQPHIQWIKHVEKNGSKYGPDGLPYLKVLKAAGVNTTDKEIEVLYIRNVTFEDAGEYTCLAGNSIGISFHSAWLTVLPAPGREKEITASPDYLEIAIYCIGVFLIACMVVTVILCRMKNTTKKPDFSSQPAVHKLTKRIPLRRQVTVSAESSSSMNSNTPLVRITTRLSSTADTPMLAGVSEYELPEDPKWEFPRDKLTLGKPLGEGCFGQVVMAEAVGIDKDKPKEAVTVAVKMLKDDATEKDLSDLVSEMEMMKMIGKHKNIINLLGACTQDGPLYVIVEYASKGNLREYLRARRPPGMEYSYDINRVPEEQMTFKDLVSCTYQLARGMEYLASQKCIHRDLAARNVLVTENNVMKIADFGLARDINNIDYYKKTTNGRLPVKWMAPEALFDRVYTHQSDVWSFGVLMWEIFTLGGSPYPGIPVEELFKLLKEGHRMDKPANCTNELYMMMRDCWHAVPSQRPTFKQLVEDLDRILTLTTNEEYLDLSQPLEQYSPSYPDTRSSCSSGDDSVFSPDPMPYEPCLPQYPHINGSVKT
The species named for data set [2] is Rattus norvegicus. Description: Percent remaining after incubation with rat liver microsomes for 10 min. The data set is classed as functional. Background: Microsomes from liver hold many membrane-bound enzymes, among them those of drug oxidation.
Data set [3] concerns the target T1, Fibroblast growth factor receptor 2. The data set is described as follows: Ex vivo inhibition of fibroblast growth factor receptor (FGF-R2) autophosphorylation 5 hr after the oral administration at 100 mg/kg. The data set is classed as functional, organism-based. Further details: dose 100 mg/kg.
Target sequence in this assay (P21802 22-821 limits assumed): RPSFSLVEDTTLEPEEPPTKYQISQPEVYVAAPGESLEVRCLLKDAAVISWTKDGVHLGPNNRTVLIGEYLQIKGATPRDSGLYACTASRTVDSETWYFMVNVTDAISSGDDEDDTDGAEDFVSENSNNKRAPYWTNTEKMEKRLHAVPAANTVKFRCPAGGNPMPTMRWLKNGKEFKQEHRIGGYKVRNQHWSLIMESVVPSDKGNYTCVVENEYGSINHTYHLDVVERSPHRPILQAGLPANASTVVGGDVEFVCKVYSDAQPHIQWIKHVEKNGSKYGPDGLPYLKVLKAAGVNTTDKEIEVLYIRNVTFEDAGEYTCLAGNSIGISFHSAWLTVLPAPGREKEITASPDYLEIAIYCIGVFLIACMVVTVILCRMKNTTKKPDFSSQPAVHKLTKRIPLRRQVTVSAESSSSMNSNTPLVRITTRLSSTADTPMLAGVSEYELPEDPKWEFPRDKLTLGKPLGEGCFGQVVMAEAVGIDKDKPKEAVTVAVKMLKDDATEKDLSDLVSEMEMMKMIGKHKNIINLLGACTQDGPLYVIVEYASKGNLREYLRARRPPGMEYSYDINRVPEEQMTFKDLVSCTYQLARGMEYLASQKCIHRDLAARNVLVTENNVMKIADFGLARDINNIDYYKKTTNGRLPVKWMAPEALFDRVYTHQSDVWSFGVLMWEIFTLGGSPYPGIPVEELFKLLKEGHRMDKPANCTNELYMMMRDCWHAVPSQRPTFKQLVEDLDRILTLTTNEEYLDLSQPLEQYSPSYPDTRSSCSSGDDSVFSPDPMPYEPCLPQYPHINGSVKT
The nature of data set [4]: Solubility after at a pH 1.2. It counts as physicochemical. The settings on record: buffer, read-out: Activity.
Data set [5] has as its target Vascular endothelial growth factor receptor 2 (Homo sapiens, UniProt P35968). Description: Inhibition of vascular endothelial growth factor receptor 2 autophosphorylation in intact cells. The data set is classed as cell-based.
Data set [6] addresses T2, Hepatocyte growth factor receptor (Homo sapiens, UniProt P08581). Description: Inhibition of c-Met autophosphorylation in intact cells at 10 uM (inactive). The data set is classed as cell-based.
Data set [7] concerns the target Platelet-derived growth factor receptor (Homo sapiens, UniProt P09619+P16234). Description: Inhibition of PDGF-receptor autophosphorylation in intact cells. It counts as cell-based.
Data set [8] can be described thus: Solubility after injection of water. It counts as physicochemical. Conditions: read-out: Activity.
For data set [9], the target named is T3, Epidermal growth factor receptor (Homo sapiens, UniProt P00533). The data set is described as follows: Inhibition of EGF-receptor autophosphorylation in intact cells at 10 uM (inactive). The data set is classed as cell-based.
For data set [10], the species on record is Rattus norvegicus. The data set is described as follows: Percent remaining after incubation with rat liver microsomes for 40 min. It counts as functional.
Data set [11] concerns the target T4, Insulin-like growth factor 1 receptor (Homo sapiens, UniProt P08069). Description: Inhibition of IGF-receptor 1 autophosphorylation in intact cells. The data set is classed as cell-based.
A short description of data set [12]: Solubility after at pH 1.2. It counts as physicochemical. The settings on record: buffer, read-out: Activity.
Data set [13] is filed under the species Homo sapiens. Description: Percent remaining after incubation with human liver microsomes for 40 min. The data set is classed as functional.
In data set [14] the target is T3, Epidermal growth factor receptor. The data set is described as follows: Inhibition of EGF-receptor autophosphorylation in intact cells. It counts as cell-based.
Data set [15] concerns the target T2, Hepatocyte growth factor receptor. Description: Inhibition of c-Met autophosphorylation of in intact cells. The data set is classed as cell-based.
The species entered for data set [16] is Homo sapiens. Description: Percent remaining after incubation with human liver microsomes for 10 min. It counts as functional.
The target of data set [17] is T4, Insulin-like growth factor 1 receptor. Description: Inhibition of IGF-receptor 1 autophosphorylation in intact cells at 10 uM (inactive). It counts as cell-based.
Data set [18] has as its target Mast/stem cell growth factor receptor Kit (Homo sapiens, UniProt P10721). The data set is described as follows: Inhibition of c-Kit autophosphorylation in intact cells. The data set is classed as cell-based.

Molecules are shown by their SMILES. pIC50: −log10 of the molar value. Values after ≈ are worked out from the molar mass of the structure shown. Active and inactive are the calls of the source. A value given as a limit tells only on which side of the number the result lay.

T2 sequence (P08581 whole entry): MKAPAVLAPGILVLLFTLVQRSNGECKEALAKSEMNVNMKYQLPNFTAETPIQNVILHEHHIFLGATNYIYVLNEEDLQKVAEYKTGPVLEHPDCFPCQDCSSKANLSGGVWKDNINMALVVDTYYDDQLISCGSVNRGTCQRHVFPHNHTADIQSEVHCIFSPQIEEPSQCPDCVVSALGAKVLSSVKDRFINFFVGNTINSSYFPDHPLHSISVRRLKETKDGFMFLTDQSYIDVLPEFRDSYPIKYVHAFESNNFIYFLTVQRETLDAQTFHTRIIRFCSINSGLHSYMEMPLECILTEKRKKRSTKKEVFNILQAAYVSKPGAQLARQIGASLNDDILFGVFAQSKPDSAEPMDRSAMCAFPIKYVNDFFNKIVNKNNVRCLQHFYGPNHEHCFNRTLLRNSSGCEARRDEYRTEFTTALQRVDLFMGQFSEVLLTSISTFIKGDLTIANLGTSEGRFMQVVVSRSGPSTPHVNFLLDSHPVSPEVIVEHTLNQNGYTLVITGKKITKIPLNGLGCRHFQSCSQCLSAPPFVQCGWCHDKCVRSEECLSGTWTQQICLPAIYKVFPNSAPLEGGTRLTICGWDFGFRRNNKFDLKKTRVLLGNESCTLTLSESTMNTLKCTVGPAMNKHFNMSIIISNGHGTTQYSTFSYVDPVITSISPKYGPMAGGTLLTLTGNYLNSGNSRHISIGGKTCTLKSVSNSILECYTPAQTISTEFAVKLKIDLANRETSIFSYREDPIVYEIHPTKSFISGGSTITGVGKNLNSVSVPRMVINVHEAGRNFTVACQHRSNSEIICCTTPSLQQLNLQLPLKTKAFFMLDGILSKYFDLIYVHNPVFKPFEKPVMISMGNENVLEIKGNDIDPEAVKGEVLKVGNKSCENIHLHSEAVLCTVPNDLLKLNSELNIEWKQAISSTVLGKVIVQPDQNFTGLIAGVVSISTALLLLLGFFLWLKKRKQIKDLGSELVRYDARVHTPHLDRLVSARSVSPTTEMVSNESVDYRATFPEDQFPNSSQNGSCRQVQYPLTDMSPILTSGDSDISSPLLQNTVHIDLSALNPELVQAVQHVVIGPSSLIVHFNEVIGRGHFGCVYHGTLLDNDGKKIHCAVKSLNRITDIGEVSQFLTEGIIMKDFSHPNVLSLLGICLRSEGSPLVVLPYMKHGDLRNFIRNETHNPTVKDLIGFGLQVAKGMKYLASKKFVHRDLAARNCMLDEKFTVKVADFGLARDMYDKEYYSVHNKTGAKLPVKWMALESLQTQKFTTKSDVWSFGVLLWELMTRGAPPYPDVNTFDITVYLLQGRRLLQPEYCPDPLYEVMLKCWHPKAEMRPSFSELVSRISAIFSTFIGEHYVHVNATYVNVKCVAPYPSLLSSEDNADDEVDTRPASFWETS
T4 sequence (P08069 31-736 limits assumed): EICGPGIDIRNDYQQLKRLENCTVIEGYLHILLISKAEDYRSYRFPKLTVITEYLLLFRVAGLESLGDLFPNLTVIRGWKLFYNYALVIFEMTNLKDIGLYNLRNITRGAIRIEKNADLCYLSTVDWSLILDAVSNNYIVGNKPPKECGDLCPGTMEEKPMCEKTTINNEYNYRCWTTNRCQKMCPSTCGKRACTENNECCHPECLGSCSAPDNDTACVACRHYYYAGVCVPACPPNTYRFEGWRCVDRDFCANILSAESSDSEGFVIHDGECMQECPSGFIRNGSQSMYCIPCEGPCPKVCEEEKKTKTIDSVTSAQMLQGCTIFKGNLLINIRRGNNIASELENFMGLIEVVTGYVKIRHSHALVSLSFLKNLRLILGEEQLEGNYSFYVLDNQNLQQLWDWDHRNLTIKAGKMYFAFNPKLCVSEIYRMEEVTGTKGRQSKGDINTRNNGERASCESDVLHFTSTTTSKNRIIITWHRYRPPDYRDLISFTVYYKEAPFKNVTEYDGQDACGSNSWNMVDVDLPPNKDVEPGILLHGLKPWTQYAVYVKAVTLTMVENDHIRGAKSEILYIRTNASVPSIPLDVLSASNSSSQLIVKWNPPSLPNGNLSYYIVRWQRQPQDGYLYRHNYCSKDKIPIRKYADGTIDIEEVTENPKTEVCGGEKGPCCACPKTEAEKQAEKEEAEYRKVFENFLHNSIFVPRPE
T4 sequence (P08069 741-1367 limits assumed): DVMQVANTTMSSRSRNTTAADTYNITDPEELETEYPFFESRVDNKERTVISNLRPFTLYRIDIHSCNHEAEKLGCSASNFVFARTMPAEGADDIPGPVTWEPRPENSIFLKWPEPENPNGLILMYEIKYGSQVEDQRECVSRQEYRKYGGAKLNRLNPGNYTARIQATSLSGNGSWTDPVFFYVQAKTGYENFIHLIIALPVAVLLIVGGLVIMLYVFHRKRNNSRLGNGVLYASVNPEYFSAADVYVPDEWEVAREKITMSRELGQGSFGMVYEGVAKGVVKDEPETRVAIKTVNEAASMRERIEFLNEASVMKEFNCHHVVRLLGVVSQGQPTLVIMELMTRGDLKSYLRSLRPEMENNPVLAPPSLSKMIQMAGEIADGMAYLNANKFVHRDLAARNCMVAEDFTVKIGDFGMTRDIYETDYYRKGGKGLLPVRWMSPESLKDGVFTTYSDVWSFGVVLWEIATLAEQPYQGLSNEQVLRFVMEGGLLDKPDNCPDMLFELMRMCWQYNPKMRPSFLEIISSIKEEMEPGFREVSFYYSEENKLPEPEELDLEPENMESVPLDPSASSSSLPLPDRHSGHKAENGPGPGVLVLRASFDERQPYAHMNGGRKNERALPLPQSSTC

`COc1cc2c(Oc3ccc(Nc4ccc(C(C)(C)C)cc4)cc3)ccnc2cc1OCCCN1CCCCC1` showed a pIC50 in [1] of 6.46. In addition, the Metabolism in the data set listed under Rattus norvegicus [2] was determined as 28%.

`COc1cc2nccc(Oc3ccc(Nc4ccc(C(C)(C)C)cc4)cc3C)c2cc1OC` showed a pIC50 in [1] below 5.00.

On to `COc1cc2nccc(Oc3ccc(Cc4ccc(C(C)(C)C)cc4)cc3)c2cc1OC`, for which, in data set [3], the inhibition was 5%. In addition, the pIC50 in data set [1] was below 6.00.

In the case of `COc1cc2c(Oc3ccc(Nc4ccc(C(C)(C)C)cc4)cc3)ccnc2cc1OCCN1CCC(CO)CC1`, the pIC50 in [1] is 7.64. In addition, the Metabolism in the data set listed under Rattus norvegicus [2] was determined as 51%.

In [1], `COc1cc2nccc(Oc3ccc(NC4CCC(C(C)(C)C)CC4)cc3)c2cc1OC` (stereo unspecified) gave a pIC50 of 5.47.

In data set [1], `COc1cc2nccc(Oc3ccc(Nc4ccccc4)cc3)c2cc1OC` showed a pIC50 of 5.05.

For the compound `COc1cc2nccc(Oc3ccc(C(=O)c4ccc(C(C)(C)C)cc4)cc3)c2cc1OC`, the inhibition in data set [3] stood at 3%. In addition, the pIC50 in [1] is 6.72.

Consider `COc1ccc(Nc2ccc(Oc3ccnc4cc(OC)c(OC)cc34)cc2)cc1`, for which the pIC50 in [1] was 6.11.

In turn, `COc1cc2c(Oc3ccc(Nc4ccc(C(C)(C)C)cc4)cc3)ccnc2cc1OCC(O)CN1CCCCC1` (stereo unspecified) showed a pIC50 in [1] of 6.70. The same compound had a Metabolism in the data set filed under Rattus norvegicus [2] of 78%.

In [1], `COc1cc2nccc(Oc3ccc(Nc4ccc(C(C)(C)C)cc4)c(C)c3)c2cc1OC` showed a pIC50 of 7.00.

`COc1cc2nccc(Oc3ccc(Oc4ccc(C(C)(C)C)cc4)cc3)c2cc1OC` showed a pIC50 in data set [1] of 6.36.

On to `COc1cc2nccc(Oc3ccc(Nc4ccc(C(C)(C)C)cc4)cc3)c2cc1OC`, for which, in data set [4], the solubility came out at 3 µg/mL (≈ 7 µM). The compound also had an inhibition in [3] of 70%. This compound also gave a pIC50 in data set [1] of 7.40.

The compound `COc1cc2c(Oc3ccc(Nc4ccc(C(C)(C)C)cc4)cc3)ccnc2cc1OCC(O)CN1CCOCC1` (stereo unspecified) showed a pIC50 in data set [1] of 7.15. Besides, the Metabolism in the data set listed under Rattus norvegicus [2] was found to be 72%.

As to `COc1cc2nccc(Oc3ccc(Nc4ccc(C(C)(C)C)cc4)c(C)c3C)c2cc1OC`, in [1], the pIC50 was 6.89.

In turn, `COc1cc2nccc(Oc3ccc(Nc4ccc(C(C)(C)C)cc4)c(F)c3)c2cc1OC` had a pIC50 in data set [1] of 7.20.

As to `COc1cc2c(Oc3ccc(Nc4ccc(C(C)(C)C)cc4)cc3)ccnc2cc1OCCN1CCOCC1`, the pIC50 in [1] is 6.70. Also, the Metabolism in the data set listed under Rattus norvegicus [2] amounted to 9%.

With `COc1cc2c(Oc3ccc(Nc4ccc(C(C)(C)C)cc4)cc3F)ccnc2cc1OCCNCCO`, the pIC50 in data set [1] is 7.15. The compound further showed a Metabolism in the data set listed under Rattus norvegicus [2] of 60%.

In data set [1], `COc1cc2nccc(Oc3ccc(Nc4ccc(C(C)(C)C)cc4)c(C(F)(F)F)c3)c2cc1OC` gave a pIC50 below 5.00.

Compound `COc1cc2c(Oc3ccc(Nc4ccc(C(C)(C)C)cc4)c(F)c3)ccnc2cc1OCCNCCO` had a pIC50 in data set [1] of 6.59. The same compound returned a Metabolism in the data set filed under Rattus norvegicus [2] of 92%.

Turning to `COc1cc2nccc(Oc3ccc(Nc4ccc(C(C)(C)C)cc4)cc3F)c2cc1OC`, in [1], the pIC50 is 7.27.

With `COc1cc2c(Oc3ccc(Nc4ccc(C(C)(C)C)cc4)cc3)ccnc2cc1OCCNCCO`, the pIC50 in data set [5] was 7.08; in [7], 7.00; in data set [11], below 5.00; in data set [14], below 5.00; in [15], below 5.00; in data set [1], 7.06. The same compound showed a pIC50 in [18] of 6.32. Moreover, the outcome in [6], in data set [9] and in [17] was inactive. Moreover, the solubility is 108 µg/mL (≈ 215 µM) in [8] and 802 µg/mL (≈ 1600 µM) in [12]. The Metabolism in the data set listed under Rattus norvegicus [10] is 78%; in the data set listed under Homo sapiens [13] it was 89%; in the data set listed under Homo sapiens [16], 99%; in the data set listed under Rattus norvegicus [2] it was 97%.

For `COc1cc2nccc(Oc3ccc(Nc4ccc(C(C)C)cc4)cc3)c2cc1OC`, in [1], the pIC50 is 6.70.

The compound `COc1cc2c(Oc3ccc(Nc4ccc(C(C)(C)C)cc4)cc3)ccnc2cc1OCCN(CCO)CCO` gave a pIC50 in data set [1] of 7.15. In the data set listed under Rattus norvegicus [2], this compound displayed a Metabolism of 46%.

In turn, `COc1cc2nccc(Oc3ccc(Nc4cccc(-c5ccccc5)c4)cc3)c2cc1OC` gave a pIC50 in data set [1] below 5.00.
